{
  "source": "patent US20100317711A1",
  "about": "“STEM-LIKE CELLS AND METHOD FOR REPROGRAMMING ADULT MAMMALIAN SOMATIC CELLS” (GLIAMED, INC., priority 2009, published 2010)",
  "key": {"[1]": {"system": "murine fibroblasts, 3T3 cells", "test": "Oct4 immunostaining of murine fibroblasts (3T3 cells) cultured with GM1485", "assay_type": "cell-based", "conditions": "GM1485 versus vehicle, no neural induction", "description": "In another experiment, the murine fibroblasts, 3T3 cells were cultured in accordance with the protocol described, supra., for Example 1, except that they were not entered into a neural induction environment. Rather, the murine fibroblasts were fixed and stained with rabbit αOct4 antibody. The photomicrographs in FIG. 3 were taken using bright field microscopy using a 20× objective, except the inset, which is a 20× phase contrast photomicrograph of the same microscopic field into which it is set. The arrows point to the corresponding nuclei in the bright field and phase micrographs of the vehicle treated murine fibroblasts. Only the GM1485 treated murine fibroblasts express Oct4."}, "human keratinocytes": {"system": "human keratinocytes", "test": "In vitro treatment of human keratinocytes with GM1485 with or without rhIGF2 (Oct4, Sox2)", "assay_type": "cell-based"}, "adult rats": {"system": "adult rats", "test": "Cardiac ischemic injury (left anterior descending artery ligation) in adult rats", "assay_type": "in vivo, rat", "conditions": "5 mg/kg daily intraperitoneal, 30 days after infarction", "description": "Adult rats underwent thoracotomy, the heart was isolated, the left anterior descending artery was identified and ligated at its branch point from the left circumflex artery, causing a massive infarction of the left ventricle. The chest was closed, lungs reinflated and the skin closed. The animals began a 30 day regimen of daily intraperitoneal injections of either GM1485 at 5 mg/kg or the saline vehicle in which it was dissolved. On the 30th day after infarction the animals were sacrificed, the hearts harvested, fixed and cryosectioned. […] The histology of the vehicle treated tissue is consistent with an extensive myocardial infarction. […] FIG. 5 is a 2×2 matrix of photomicrographs of cardiac tissue 30 days after infarction and treatment with either vehicle in the top two slides or GM1485 in the bottom two slides. The left upper and lower sections were stained with an αOct4 antiserum and the right upper and lower sections were stained with αSox2 (mAb R&D Systems). Only the GM1485 treated cardiac tissue expresses Oct4 and/or Sox2."}, "[2]": {"system": "Adult, facial skin-derived human fibroblasts", "test": "IGF2 blockade during GM1485-mediated iPS induction and neural re-differentiation of human fibroblasts", "assay_type": "cell-based", "description": "To test the role of IGF2 in GM1485-mediated iPS induction, an α-IGF2 blocking antibody was included at the onset of induction and maintained in culture for three days.\nAdult, facial skin-derived human fibroblasts were cultured in the presence of 100 μM GM1485 in chemically defined medium for 72 hours with (b) or without (a) 40 ng/ml mAb IGF2, a neutralizing antibody (Abcam, Inc.). One set of cells was fixed and stained with rabbit αOct4 (a and b). IGF2 signaling is required of the reprogramming from somatic cells to iPS cells. On the chance that the cells maintained plasticity, cells were continued in culture, but they were switched to culture conditions under which ES cells differentiate along a neural pathway. In specific, the cells were rinsed in PBS and cultured with chemically defined medium supplemented with rhFGF2, 10 ng/ml for an additional 72 hours, after which the cells were rinsed in PBS and the culture medium was replaced with chemically defined medium supplemented with rhEGF, 20 ng/ml. After seven days the cells were rinsed in PBS, fixed in 4% paraformaldehyde in PBS, and processed for immunocytochemistry with TuJ1, a mAb that recognizes neuron-specific βIII-Tubulin."}, "human fibroblasts": {"system": "human fibroblasts", "test": "Reprogramming of GM1485-treated human fibroblasts under neural inducing conditions (GFAP, TuJ1 staining)", "assay_type": "cell-based", "conditions": "GM1485 100 μM, then FGF2 72 hours and rhEGF 7 days", "description": "On day one of this experiment, the human fibroblasts, were plated, grown overnight as described above and then changed to DMEM supplemented with 10% heat inactivated FCS, 1% DMEM non-essential amino acids (Gibco), penicillin/streptomycin/glutamine (Gemini Bioproducts) and amphotericin B with or without GM1485 for 1 day, and reduced the concentration of serum over an 16 h period until the serum was absent, however the concentration of GM1485 was maintained at 100 μM throughout. The cells were maintained in SFM+/−GM1485 and 10 ng/mL FGF2 for 72 hours. On day 4 of the experiment, the culture environment was changed to 0.5 mL of a SFM without FGF2, but with rhEGF at 20 ng/ml. The cells were maintained in SFM supplemented with 20 ng/ml rhEGF for an additional 7 days. On the 11th day all the cells were fixed by aspirating the medium from the wells and replacing it with 0.5 mL/well of 4% paraformaldehyde in phosphate buffered saline (“PBS”) for 15 minutes at room temperature. Thereafter, the cells were briefly rinsed with PBS at room temperature, then washed with PBS at room temperature in three cycles of 5 minutes each. […] FIG. 2 is comprised of a set of 4 fluorescence photomicrographs, shown in inverted mode to allow full visualization in grayscale. […]"}, "[3]": {"system": "normal human dermal fibroblasts (NHDF)", "test": "Oct4 immunostaining of normal human dermal fibroblasts cultured with GM1485", "assay_type": "cell-based", "conditions": "GM1485 100 μM in serum free medium, 72 hours, versus vehicle", "description": "The fibroblasts were harvested from a skin sample was taken from the face of a human cadaver. The skin sample was cut into small fragments and digested with dispase overnight (4° C.). Thereafter the epidermis was separated from the dermis. The dermis fragments were further digested with collagenase for approximately 1 h at 37° C., and then diluted with culture medium and filtered to obtain a suspension of dermal cells. The dermal cells were next purified via magnetic bead separation to yield normal human dermal fibroblasts (“NHDFs”). Second passage normal human dermal fibroblasts (NHDF) were seeded onto poly-D-lysine coated coverslips within wells of 24-well plates, at a density of 4,000 cells/well and cultured overnight in NHDF growth medium from PromoCell GmbH (NHDF GM) consisting of: The NHDF GM was aspirated, the wells were rinsed twice with Hank's balanced salt solution (HBSS), and 400 μL of serum free medium (SFM) supplemented with GM1485 at a final concentration of 100 μM or the vehicle the drug vehicle (SFM). […]"}, "IGF2 expression": {"system": "IGF2 expression", "test": "cDNA array analysis of gene expression after initiating reprogramming with GM1485", "assay_type": "cell-based, human", "conditions": "48 hours after initiating reprogramming, GM1485 versus vehicle treated cells", "description": "It has previously been shown that RIL treatment alters gene expression and that the biologic effects of these compounds are dependent upon cell-cell signaling. Included among these changes are alterations in the secretion of soluble factors (Lowry W E et al. 2008, Proc Natl Acad Sci USA 105, 2883-2888). To begin to explore what changes in gene expression might play a role GM1485-mediated iPS induction, RNA for cDNA array analysis was harvested from GM1485 and vehicle treated cells 48 hours after initiating reprogramming with GM1485."}},
  "data": [
    {"smiles": "CCC(C)(C)C(=O)C(=O)N1CCC[C@H]1C(=O)O", "note": "[GM1485, (2S)-1-(3,3-dimethyl-1,2-dioxopentyl)-2-pyrrolidinecarboxylic acid]", "values": [
      {"measurement": "Oct4 expression (rabbit αOct4 staining)", "setting": "[1]", "value": "express Oct4"},
      {"measurement": "iPS induction", "setting": "human keratinocytes; GM1485 alone, in vitro", "value": "has not previously resulted in iPS induction"},
      {"measurement": "Oct4 and Sox2 expression", "setting": "human keratinocytes; GM1485 with rhIGF2 included in cultures", "value": "upregulate Oct4 and Sox2 with the same kinetics as treated fibroblasts"},
      {"measurement": "histology of heart tissue (H&E stained section)", "setting": "adult rats; versus saline vehicle", "value": "consistent with normal myocardium"},
      {"measurement": "Oct4 and Sox2 expression in cardiac tissue", "setting": "adult rats; versus vehicle", "value": "Oct4 and Sox2 are upregulated"},
      {"measurement": "differentiation to neuronal cells (TuJ1, βIII-Tubulin)", "setting": "[2]; 100 μM GM1485 72 hours without IGF2 blockade, then rhFGF2 72 hours, rhEGF seven days", "value": "differentiated to neuronal cells"},
      {"measurement": "reprogramming to iPS cells (rabbit αOct4 staining)", "setting": "[2]; 100 μM GM1485, 72 hours, without IGF2 blockade", "value": "reprogrammed"},
      {"measurement": "reprogramming of fibroblasts to neurons or astrocytes (GFAP, TuJ1)", "setting": "human fibroblasts", "value": "acquire the ability to be reprogrammed to an alternative cell fate"},
      {"measurement": "Oct4 expression (anti-OCT 3/4 immunostaining)", "setting": "[3]", "value": "upregulation of Oct4"},
      {"measurement": "IGF2 expression increase", "setting": "IGF2 expression", "value": 550, "unit": "%"},
      {"measurement": "number of genes upregulated by 2 fold or more", "setting": "IGF2 expression", "value": "Over 100"}
    ]}
  ]
}
